Literature values as cited in US7799817B2, “Compositions and methods for sleep regulation” (LifeScape BioSciences Inc, priority 2004, dated 2010).
Read-outs that look alike come from different tables or passages of the source.

Tests used:
jet lag [1] = conditions: for mean global jet lag score: 0=no jet lag, 100=extreme jet lag
[2] = adult human
jet lag [3] = test system: jet lag

COc1ccc2[nH]cc(CCNC(C)=O)c2c1 [melatonin, N-acetyl-5-methoxytryptamine]
mean global jet lag score (jet lag [1]; eastward flights, four trials combined, placebo 51): 31
jet lag after melatonin administration (jet lag [1]; eight of ten randomized, placebo-controlled trials): less jet lag
mean global jet lag score (jet lag [1]; westward flights, two RCTs, placebo 41): 22
half-life [2]: approximately 45 minutes
effectiveness of lower dose for symptoms of jet lag unrelated to sleep (jet lag [3]; 0.5 mg fast release versus 5 mg): almost as effective as the higher dose
effect of higher dose on sleep quality and sleep latency (jet lag [3]; 5 mg versus 0.5 mg fast release): greater effect on sleep quality and sleep latency than the lower dose
effectiveness of slow release form (jet lag [3]; slow release 2 mg versus 5 mg or 0.5 mg fast release): less effective than either 5 mg or 0.5 mg (fast release)
